In US6906092B2, “Method of inhibiting matrix metalloproteinases” (Warner-Lambert Company, priority 1996, dated 2005):
Where two headings read alike, the source gives them in different places.

Experiments:
[1] = target: MMP02 (GCD, recombinant gelatinase A catalytic domain) (Homo sapiens, UniProt P08253); assay: Thiopeptolide assay, gelatinase A catalytic domain (GCD); assay type: biochemical; conditions: thiopeptolide substrate
Protocol: (§1) IC50 values were determined using a thiopeptolide substrate, Ac-Pro-Leu-Gly-thioester-Leu-Leu-Gly-OEt (Ye Q.-Z., Johnson L. L., Hupe D. J., and Baragi V., “Purification and Characterization of the Human Stromelysin Catalytic Domain Expressed in Escherichia coli,” Biochemistry, 1992;31:11231-11235). MMP01, MMP07, MMP09, and MMP13 activity was assayed in a method similar to MMP02 and MMP03 (SCD and GCD). MMP01 and MMP09 can be obtained from Washington University School of Medicine, St. Louis, Mo. MMP07 can be obtained in accordance with the known procedure set forth by Ye Q-Z, Johnson L. L., and Baragi V., “Gene Syntheses and Expression in E. coli for PUMP, a Human Matrix Metalloproteinase” Biochem. and Biophys. Res. Comm., 1992;186:143-149. MMP13 can be obtained in accordance with the known procedure set forth by Freije J. M. P., et al., “Molecular Cloning and Expression of Collegenase-3, a Novel Human Matrix Metalloproteinase Produced by Breast Carcinomas” J. Bio. Chem., 1994;269:16766-16773.
(§2) Hydrolysis of the thiopeptolide substrate Ac-Pro-Leu-Gly-thioester-Leu-Leu-Gly-OEt (Bachem) is used as the primary screen to determine IC50 values for MMP inhibitors. A 100 μL reaction contains 1 mM 5,5′-dithiobis(2-nitrobenzoic acid) (DTNB), 100 μM substrate, 0.1% Brij, enzyme, and inhibitor in the appropriate reaction buffer. Activated full-length enzymes are assayed at 5 nM, Stromelysin Catalytic Domain (SCD) at 10 nM, and Gelatinase A Catalytic Domain (GaCD) at 1 nM. Inhibitors are screened from 100 μM to 1 nM. Full-length enzymes are assayed in 50 mM HEPES, 10 mM CaCl2, pH 7.0; SCD in 50 mM MES, 10 mM CaCl2, pH 6.0; and GaCD in 50 mM MOPS, 10 mM CaCl2, 10 μM ZnCl2, pH 7.0.

[2] = target: T1, MMP01 (fibroblast collagenase) (Homo sapiens, UniProt P03956); assay: Thiopeptolide assay, MMP01; assay type: biochemical; conditions: thiopeptolide substrate
T1 construct: purchased Washington University School of Medicine, St. Louis, Mo
T1 sequence (P03956 100-469): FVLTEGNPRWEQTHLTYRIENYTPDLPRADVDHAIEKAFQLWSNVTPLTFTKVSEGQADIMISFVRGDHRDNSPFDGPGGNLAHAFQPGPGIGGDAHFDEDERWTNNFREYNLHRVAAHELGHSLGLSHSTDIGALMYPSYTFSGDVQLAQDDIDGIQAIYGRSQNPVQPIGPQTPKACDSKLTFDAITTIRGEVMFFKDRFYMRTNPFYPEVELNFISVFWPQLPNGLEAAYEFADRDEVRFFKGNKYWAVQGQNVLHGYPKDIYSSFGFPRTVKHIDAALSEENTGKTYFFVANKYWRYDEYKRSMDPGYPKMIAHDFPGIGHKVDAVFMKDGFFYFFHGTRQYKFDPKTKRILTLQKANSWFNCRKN
Protocol: as §1, §2

[3] = target: T2, MMP03 (SCD, stromelysin-1 catalytic domain) (Homo sapiens, UniProt P08254); assay: Thiopeptolide assay, stromelysin-1 catalytic domain (SCD); assay type: biochemical; conditions: thiopeptolide substrate
T2 construct: SCD (stromelysin-1 catalytic domain); made in house; host or cells: Escherichia coli
Protocol: as §1, §2

gelatinase A = gelatinase A (Homo sapiens, UniProt P08253); assay: Gelatin assay (gelatinase natural substrate assay) (Gel); assay type: biochemical
Protocol: Gelatin Assay (Gelatinase Natural Substrate Assay) (Gel)
Rat tail Type I collagen (Sigma) is denatured by heating at 95° C. for 20 minutes to prepare the gelatin substrate. A 50 μL reaction contains 1.12 mg/mL substrate, enzyme, inhibitor, and 80 μg/mL soy bean trypsin inhibitor as an inert internal standard in 50 mM MOPS, 10 mM CaCl2, 10 μM ZnCl2, pH 7.0. Activated full-length gelatinase A is assayed at 1 nM and gelatinase A catalytic domain (GaCD) at 10 nM. Inhibitors are screened from 100 μM to 1 nM. The reactions are incubated at 37° C. for 30 minutes then stopped with 50 μL at 2× Tricine gel loading buffer (Novex). Reaction products are separated from undigested substrate by electrophoresis on Tricine-SDS 10-20% polyacrylamide gradient gels (Novex). Protein bands are stained with Coomassie Brilliant Blue R and quantified using a Bio Image densitometer (Millipore). IC50 values are calculated from the disappearance of substrate using the sum of the top three bands of each reaction after normalization with the internal standard.

[4] = MMP inhibitor bioassay (inhibitor plasma level after gavage); assay type: in vivo, rat; conditions: 50 mg/kg by gavage
Protocol: Animals are dosed by gavage with either vehicle or compound at 2, 10, or 50 mg/kg. Blood samples are collected from 3 to 4 animals from each dosing group at 1, 2, 4, 6, and 24 hour postdose, centrifuged, and the plasma immediately frozen at −20° C. Plasma protein is precipitated with an equal volume of acetonitrile and separated by centrifugation at room temperature. The supernate is evaporated to dryness and reconstituted to the original plasma volume with 50 mM Tris, pH 7.6. Ten-fold serial dilutions of the reconstituted plasma samples are prepared in 50 mM Tris, pH 7.6 for dose response assays using the appropriate thiopeptolide assay. […] All control samples are subjected to acetonitrile precipitation and analyzed with the thiopeptolide assay.

[5] = target: T3, stromelysin catalytic domain (SCD) (Homo sapiens, UniProt P08254); assay: Soluble proteoglycan assay (stromelysin natural substrate assay) SCD (PG); assay type: biochemical; conditions: solubilized proteoglycan substrate
T3 construct: SCD (stromelysin-1 catalytic domain); made in house; host or cells: Escherichia coli
Protocol: Soluble Proteoglycan Assay (Stromelysin Natural Substrate Assay) SCD (PG)
Solubilized proteoglycan substrate is prepared from bovine cartilage powder (Sigma) using the method described by Nagase and Woessner in Anal. Biochem., 1980;107:385-392. A 100 μL reaction contains 10 μg/mL proteoglycan, enzyme, and inhibitor in 50 mM MES, 10 mM CaCl2, pH 6.0. Activated full-length stromelysin or stromelysin catalytic domain (SCD) is assayed at 100 nM. Inhibitors are screened from 100 μM to 1 nM. The reaction is incubated at 37° C. for 3 hours then stopped with the addition of 1,10-phenanthroline at a final concentration of 1 mM. Reaction products are separated from undigested substrate using ultrafree-MC polysulfone microcons with a 300,000 molecular weight cut-off membrane (Millipore) and quantified using a modified […] (DMB) assay described by Farndale, Sayers, and Barrett in Connective Tissue Research, 1982;9:247-248. Absorbance is measured at 518 nm using 32 μg/mL DMB in a 1 mL reaction. The standard curve is constructed from 0 to 100 μg shark cartilage chondroitin sulfate C (Sigma).

MMP07 (matrilysin) = target: T4, MMP07 (matrilysin) (Homo sapiens, UniProt P09237); assay: Thiopeptolide assay, MMP07; assay type: biochemical; conditions: thiopeptolide substrate
T4 construct: made in house; host or cells: E. coli
T4 sequence (P09237 95-267): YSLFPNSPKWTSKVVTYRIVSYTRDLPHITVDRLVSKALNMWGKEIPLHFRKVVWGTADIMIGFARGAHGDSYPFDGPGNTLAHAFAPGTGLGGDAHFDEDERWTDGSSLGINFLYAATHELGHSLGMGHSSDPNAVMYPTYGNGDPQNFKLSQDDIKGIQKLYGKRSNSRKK
Protocol: as §1, §2

MMP13 (collagenase-3) = target: T5, MMP13 (collagenase-3) (Homo sapiens, UniProt P45452); assay: Thiopeptolide assay, MMP13; assay type: biochemical; conditions: thiopeptolide substrate
T5 construct: made in house
Protocol: as §1, §2

[6] = catalytic domain, read-out: (GCD) MMP02 IC50
[7] = catalytic domain, read-out: (SCD) MMP03 IC50

Chain of MMP02 (GCD, recombinant gelatinase A catalytic domain) (P08253 110-221 limits assumed): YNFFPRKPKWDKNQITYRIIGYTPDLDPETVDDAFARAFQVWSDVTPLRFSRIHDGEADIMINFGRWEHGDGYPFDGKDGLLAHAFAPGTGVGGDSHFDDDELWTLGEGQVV
Chain of MMP02 (GCD, recombinant gelatinase A catalytic domain) (P08253 397-465 limits assumed): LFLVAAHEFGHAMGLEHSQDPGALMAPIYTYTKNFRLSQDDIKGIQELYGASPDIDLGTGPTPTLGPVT
T2 sequence (P08254 100-272 limits assumed): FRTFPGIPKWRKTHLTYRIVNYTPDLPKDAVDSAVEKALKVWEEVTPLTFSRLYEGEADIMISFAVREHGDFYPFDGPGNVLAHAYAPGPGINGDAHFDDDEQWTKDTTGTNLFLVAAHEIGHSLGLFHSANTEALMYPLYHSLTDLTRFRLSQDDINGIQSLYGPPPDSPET
T3 sequence (P08254 100-272 limits assumed): as above

Row | IC50 [1, 6] | IC50 [3, 7] | SMILES | other results
1 | 2300 nM | 1500 nM | CCC(C)[C@H](NS(=O)(=O)c1ccc2oc3ccccc3c2c1)C(=O)O (stereo partly shown) [Example 2, (L)-2-(Dibenzofuran-2-sulfonylamino)-3-methyl-pentanoic acid] | 
2 | 84 nM |  | CC(C)[C@H](NS(=O)(=O)c1ccc2oc3ccccc3c2c1)C(=O)O [Example 5, (L)-2-(Dibenzofuran-2-sulfonylamino)-3-methyl-butyric acid] | IC50 ([3]; Table 2, read-out: SCD (IC50)): 233 nM; IC50 ([1]; Table 2, read-out: GCD (IC50)): 84 nM; IC50 [2]: 19 µM; IC50 (gelatinase A): 580 nM; melting point: 163 to 165 °C; Bioassay Peak (inhibitor plasma level) ([4]; peak): 82 µM; concentration at 24 h ([4]; rat, plasma, oral, 24 hours postdose): 180 nM; IC50 [5]: 8.9 µM
3 | 4.5 nM | 15 nM | CC(C)[C@H](NS(=O)(=O)c1ccc2c(c1)oc1ccccc12)C(=O)O [Example 11, (L)-2-(dibenzofuran-3-sulfonylamino)-3-methyl-butyric acid] | IC50 (MMP07 (matrilysin)): 5 µM; IC50 [2]: 1.8 µM; IC50 (MMP13 (collagenase-3)): 47 nM
4 | 49 nM | 185 nM | CC(C)[C@H](NS(=O)(=O)c1ccc2c(c1)Cc1ccccc1-2)C(=O)O [Example 12, (L)-2-(9H-Fluorene-2-sulfonylamino)-3-methyl-butyric acid] | IC50 (MMP07 (matrilysin)): 10.8 µM; IC50 [2]: 32.3 µM; IC50 (MMP13 (collagenase-3)): 340 nM
5 | 610 nM | 690 nM | CC(C)[C@H](NS(=O)(=O)c1ccc2sc3ccccc3c2c1)C(=O)O [Example 14, (L)-2-(Dibenzothiophene-2-sulfonylamino)-3-methyl-butyric acid] | IC50 (MMP07 (matrilysin)): 27 µM; IC50 (MMP13 (collagenase-3)): 2600 nM
6 | 470 nM | 750 nM | CC(C)[C@H](NS(=O)(=O)c1ccc2oc3cc(Br)ccc3c2c1)C(=O)O [Example 16, (L)-2-(7-Bromo-dibenzofuran-2-sulfonylamino)-3-methyl-butyric acid] | 

Continued, compound first:

Row | SMILES | IC50 [1, 6] | IC50 [3, 7] | other results
7 | CC(C)C[C@H](NS(=O)(=O)c1ccc2oc3ccccc3c2c1)C(=O)O [Example 1, (L)-2-(Dibenzofuran-2-sulfonylamino)-4-methyl-pentanoic acid] | 320 nM |  | IC50 [2]: 66 µM
8 | O=C(O)[C@H](Cc1ccccc1)NS(=O)(=O)c1ccc2oc3ccccc3c2c1 [Example 3, (L)-2-(Dibenzofuran-2-sulfonylamino)-3-phenyl-propionic acid] | 900 nM |  | melting point: 196 to 198 °C
9 | C[C@H](NS(=O)(=O)c1ccc2oc3ccccc3c2c1)C(=O)O [Example 4, (L)-2-(Dibenzofuran-2-sulfonylamino)-propionic acid] | 1700 nM | 5400 nM | 
10 | O=C(O)CNS(=O)(=O)c1ccc2oc3ccccc3c2c1 [Example 6, (Dibenzofuran-2-sulfonylamino)-acetic acid] | 730 nM | 4800 nM | melting point: 208 to 210 °C
11 | O=C(O)C[C@H](NS(=O)(=O)c1ccc2oc3ccccc3c2c1)C(=O)O [Example 7, (L)-2-(Dibenzofuran-2-sulfonylamino)-succinic acid] | 1200 nM | 1000 nM | melting point: 165 to 168 °C
12 | O=C(O)[C@H](CSC(c1ccccc1)(c1ccccc1)c1ccccc1)NS(=O)(=O)c1ccc2oc3ccccc3c2c1 [Example 8, (L)-2-(Dibenzofuran-2-sulfonylamino)-3-tritylsulfanyl-propionic acid] | 9400 nM |  | 
13 | O=C(O)[C@H](CS)NS(=O)(=O)c1ccc2oc3ccccc3c2c1 [Example 9, (L)-2-(Dibenzofuran-2-sulfonylamino)-3-mercapto-propionic acid] | 4500 nM |  | 
14 | CCC(C)[C@H](NS(=O)(=O)c1ccc2oc3ccccc3c2c1)C(=O)NO (stereo partly shown) [Example 10, (L)-2-(Dibenzofuran-2-sulfonylamino)-3-methyl-pentanoic acid hydroxyamide] | 35000 nM |  | 
15 | CC(C)[C@H](NS(=O)(=O)c1ccc2oc3cc(-c4ccccc4)ccc3c2c1)C(=O)O [Example 17, (L)-3-Methyl-2-(7-phenyl-dibenzofuran-2-sulfonylamino)-butyric acid] | 360 nM | 62 nM | IC50 (MMP07 (matrilysin)): 6 µM; IC50 (MMP13 (collagenase-3)): 690 nM
